In series [1] the test system is Staphylococcus aureus. Briefly: Antibacterial activity against Staphylococcus aureus ATCC 25923 after 16 to 20 hrs by broth microdilution method. It is filed as functional. To be noted: for MIC: read-out: MIC100.
Series [2] concerns Enterococcus faecalis. Briefly: Antibacterial activity against Enterococcus faecalis ATCC 29212 after 16 to 20 hrs by broth microdilution method. It is filed as functional. As to conditions: for MIC: read-out: MIC100. In general terms: Dilution methods test growth across graded concentrations, often in twofold steps.
Series [3] relates to Mycobacterium tuberculosis. Description: Growth inhibition of Mycobacterium tuberculosis H37Ra at 200 ug/ml after 6 days by microplate alamar blue assay. The format is functional. As to conditions: 144 h, read-out: GI.
The test system of series [4] is Mycobacterium avium. Briefly: Growth inhibition of Mycobacterium avium ATCC 25291 at 200 ug/ml after 6 days by microplate alamar blue assay. It is filed as functional, Mycobacterium avium subsp. avium ATCC 25291. As to conditions: ATCC 25291, 144 h, read-out: GI. A general note: Alamar Blue is a resazurin reagent that responds to reducing activity.
Series [5] deals with Mycobacterium tuberculosis. Description: Inhibition of Mycobacterium tuberculosis H37Ra infected in human THP1 cells assessed as reduction in surviving bacteria at 200 ug/ml after 7 days by serial dilution method. It is filed as functional. As to conditions: THP-1, 168 h.
For series [6], the system named is Mycobacterium tuberculosis. Description: Growth inhibition of Mycobacterium tuberculosis H37Ra at 100 ug/ml after 6 days by microplate alamar blue assay. The format is functional. As to conditions: 144 h, read-out: GI.
In series [7] the test system is Mycobacterium tuberculosis. Briefly: Growth inhibition of Mycobacterium tuberculosis H37Ra at 75 ug/ml after 6 days by microplate alamar blue assay. The format is functional. As to conditions: 144 h, read-out: GI.
Series [8] concerns Mycobacterium tuberculosis. Briefly: Growth inhibition of Mycobacterium tuberculosis H37Ra at 100 ug/ml after 6 days in presence of 0.2 ug/ml of isoniazid by microplate alamar blue assay. The format is functional.
Series [9] concerns Mycobacterium tuberculosis. Briefly: Growth inhibition of Mycobacterium tuberculosis H37Ra at 75 ug/ml after 6 days in presence of 0.2 ug/ml of isoniazid by microplate alamar blue assay. The format is functional.
The subject of series [10] is Mycobacterium tuberculosis. Briefly: Growth inhibition of Mycobacterium tuberculosis H37Ra assessed as fractional inhibitory concentration index at 100 ug/ml after 6 days in presence of 0.2 ug/ml of isoniazid by microplate alamar blue assay. The format is functional.
Series [11] deals with Mycobacterium tuberculosis. Description: Growth inhibition of Mycobacterium tuberculosis H37Ra assessed as fractional inhibitory concentration index at 75 ug/ml after 6 days in presence of 0.2 ug/ml of isoniazid by microplate alamar blue assay. It is filed as functional.
The test system of series [12] is Mycobacterium tuberculosis. Description: Growth inhibition of Mycobacterium tuberculosis H37Ra at 50 ug/ml after 6 days by microplate alamar blue assay. As to conditions: 144 h, read-out: GI. It is filed as functional.
Series [13] can be described thus: Cytotoxicity against African green monkey Vero cells assessed as decrease in cell viability after 3 days by XTT assay. It is filed as toxicity, cell-based. As to conditions: chlorocebus sabaeus. (In general: Tetrazolium dyes change colour on reduction, which living cells bring about.)
For series [14], the system named is Mycobacterium tuberculosis. Briefly: Growth inhibition of Mycobacterium tuberculosis H37Ra at 50 ug/ml after 6 days in presence of 0.012 ug/ml of isoniazid and 0.002 ug/ml of rifampicin by microplate alamar blue assay. The format is functional.
Series [15] deals with Mycobacterium tuberculosis. Briefly: Growth inhibition of Mycobacterium tuberculosis H37Ra assessed as fractional inhibitory concentration index at 50 ug/ml after 6 days in presence of 0.012 ug/ml of isoniazid and 0.002 ug/ml of rifampicin by microplate alamar blue assay. It is filed as functional.
Series [16] deals with Mycobacterium tuberculosis. Description: Growth inhibition of Mycobacterium tuberculosis H37Ra at 50 ug/ml after 6 days in presence of 0.006 ug/ml of isoniazid and 0.002 ug/ml of rifampicin by microplate alamar blue assay. The format is functional.
Series [17] deals with Mycobacterium tuberculosis. Briefly: Growth inhibition of Mycobacterium tuberculosis H37Ra assessed as fractional inhibitory concentration index at 50 ug/ml after 6 days in presence of 0.006 ug/ml of isoniazid and 0.002 ug/ml of rifampicin by microplate alamar blue assay. The format is functional.
For series [18], the system named is Escherichia coli. Description: Growth inhibition of Escherichia coli ATCC 25922 at 10 to 200 ug/ml after 16 to 20 hrs by broth microdilution method. The format is functional.
A further series relates to Salmonella typhimurium. Description: Antibacterial activity against clinical isolates of Salmonella typhimurium after 16 to 20 hrs by broth microdilution method. The format is functional, Salmonella enterica subsp. enterica serovar Typhimurium. As to conditions: for MIC: Salmonella enterica, read-out: MIC100.
Series [19] concerns Pseudomonas aeruginosa. Briefly: Growth inhibition of Pseudomonas aeruginosa ATCC 13048 at 10 to 200 ug/ml after 16 to 20 hrs by broth microdilution method. The format is functional.
Series [20] has as its system Mycobacterium avium. Description: Growth inhibition of Mycobacterium avium ATCC 25291 at 2 ug/ml after 6 days by microplate alamar blue assay. The format is functional, Mycobacterium avium subsp. avium ATCC 25291. To be noted: ATCC 25291, 144 h, read-out: GI.
Series [21] concerns Mycobacterium tuberculosis. Briefly: Growth inhibition of Mycobacterium tuberculosis H37Ra at 0.5 ug/ml after 6 days by microplate alamar blue assay. It is filed as functional. To be noted: 144 h, read-out: GI.
For series [22], the system named is Mycobacterium tuberculosis. Description: Growth inhibition of Mycobacterium tuberculosis H37Ra at 0.002 ug/ml after 6 days by microplate alamar blue assay. The format is functional. To be noted: 144 h, read-out: GI.
Series [23] relates to Escherichia coli. Description: Antibacterial activity against Escherichia coli ATCC 25922 after 16 to 20 hrs by broth microdilution method. It is filed as functional.
Series [24] has as its system Pseudomonas aeruginosa. Description: Antibacterial activity against Pseudomonas aeruginosa ATCC 13048 after 16 to 20 hrs by broth microdilution method. It is filed as functional.
Series [25] has as its system Mycobacterium tuberculosis. Briefly: Growth inhibition of Mycobacterium tuberculosis H37Ra at 1 ug/ml after 6 days by microplate alamar blue assay. To be noted: 144 h, read-out: GI. It is filed as functional.
Series [26] concerns Mycobacterium tuberculosis. Briefly: Inhibition of Mycobacterium tuberculosis H37Ra infected in human THP1 cells assessed as reduction in surviving bacteria at 1 ug/ml after 7 days by serial dilution method. The format is functional. To be noted: THP-1, 168 h.
The test system of series [27] is Mycobacterium tuberculosis. Description: Growth inhibition of Mycobacterium tuberculosis H37Ra at 0.2 ug/ml after 6 days by microplate alamar blue assay. It is filed as functional. To be noted: 144 h, read-out: GI.
Series [28] concerns Mycobacterium tuberculosis. Briefly: Growth inhibition of Mycobacterium tuberculosis H37Ra at 0.012 ug/ml after 6 days by microplate alamar blue assay. The format is functional. As to conditions: 144 h, read-out: GI.
Series [29] deals with Mycobacterium tuberculosis. Description: Growth inhibition of Mycobacterium tuberculosis H37Ra at 0.006 ug/ml after 6 days by microplate alamar blue assay. It is filed as functional. To be noted: 144 h, read-out: GI.
Series [30] relates to Staphylococcus aureus. Description: Growth inhibition of Staphylococcus aureus ATCC 25923 at 100 ug/ml after 6 days in presence of 0.1 ug/ml of gentamicin by microplate alamar blue assay. It is filed as functional.
Series [31] deals with Staphylococcus aureus. Briefly: Growth inhibition of Staphylococcus aureus ATCC 25923 assessed as fractional inhibitory concentration index at 100 ug/ml after 6 days in presence of 0.1 ug/ml of gentamicin by microplate alamar blue assay. The format is functional.
Series [32] has as its system Enterococcus faecalis. Description: Growth inhibition of Enterococcus faecalis ATCC 29212 at 100 ug/ml after 6 days in presence of 4.5 ug/ml of gentamicin by microplate alamar blue assay. It is filed as functional.
Series [33] concerns Enterococcus faecalis. Description: Growth inhibition of Enterococcus faecalis ATCC 29212 assessed as fractional inhibitory concentration index at 100 ug/ml after 6 days in presence of 4.5 ug/ml of gentamicin by microplate alamar blue assay. The format is functional.

≈ marks a conversion by molar mass, not a printed value.

For orientation: inhibition means the percentage by which the read-out fell short of the control. Usually CC50 stands for the concentration that lowers cell viability or growth by half.

On to `CN[C@H](CC(C)C)C(=O)N[C@H]1C(=O)N[C@@H](CC(N)=O)C(=O)N[C@H]2C(=O)N[C@H]3C(=O)N[C@H](C(=O)N[C@H](C(=O)O)c4cc(O)cc(O)c4-c4cc3ccc4O)[C@H](O)c3ccc(c(Cl)c3)Oc3cc2cc(c3O[C@@H]2O[C@H](CO)[C@@H](O)[C@H](O)[C@H]2O[C@H]2C[C@](C)(N)[C@H](O)[C@H](C)O2)Oc2ccc(cc2Cl)[C@H]1O` [VANCOMYCIN], for which the MIC with Staphylococcus aureus [1] worked out at 1.5 µg/mL (≈ 1.04 µM); with Enterococcus faecalis [2], 4.5 µg/mL (≈ 3.11 µM).
Take `C#CCOc1cn([C@@H]2O[C@H](CO)[C@@H](O)[C@H]2F)c(=O)[nH]c1=O`: the inhibition of growth at 200 µg/mL in series [3] is 97%; with Mycobacterium avium [4], 0%. For the same compound, in series [5], the inhibition at 200 µg/mL was 50%. For the same compound, the inhibition of growth at 100 µg/mL in [6] came out at 3.15%. Further, the inhibition of growth at 75 µg/mL in [7] came to 1.15%. Further, the “growth inhibition (GI)” value turned out to be 99.15% in series [8]; 81.16% in series [9]; 97.81% in series [14]; 93.36% in [16]; 0% in the series with Escherichia coli [18]; 0% in the series with Pseudomonas aeruginosa [19]. Further, the “fractional inhibitory concentration index (FICI)” value came out at 0.03 in series [10], 0.56 in [11], 0.09 in series [15] and 0.21 in series [17]. Besides, the inhibition of growth at 50 µg/mL in series [12] came to 2.51%. In addition, in series [13], the CC50 at 72 h is > 300 µg/mL. The MIC with Staphylococcus aureus [1], in the series with Enterococcus faecalis [2] and with Salmonella typhimurium was > 200 µg/mL throughout.
On to `CC[C@H]1OC(=O)[C@H](C)[C@@H](O[C@H]2C[C@@](C)(OC)[C@@H](O)[C@H](C)O2)[C@H](C)[C@@H](O[C@@H]2O[C@H](C)C[C@H](N(C)C)[C@H]2O)[C@](C)(OC)C[C@@H](C)C(=O)[C@H](C)[C@@H](O)[C@]1(C)O` [CLARITHROMYCIN], for which the inhibition of growth at 2 µg/mL in the series on Mycobacterium avium [20] is 100%.
Consider `CO[C@H]1/C=C/O[C@@]2(C)Oc3c(C)c(O)c4c(O)c(c(/C=N/N5CCN(C)CC5)c(O)c4c3C2=O)NC(=O)/C(C)=C\C=C\[C@H](C)[C@H](O)[C@@H](C)[C@@H](O)[C@@H](C)[C@H](OC(C)=O)[C@@H]1C` [RIFAMPIN], for which the inhibition of growth at 0.5 µg/mL in [21] amounted to 100%. In the series with Mycobacterium avium [20], the inhibition of growth at 2 µg/mL came out at 90%. In addition, the inhibition of growth at 0.002 µg/mL in series [22] was found to be 46.2%.
Turning to GENTAMICIN, the MIC100 was found to be 0.5 µg/mL against Staphylococcus aureus [1]; 12.5 µg/mL against Enterococcus faecalis [2]; 1 µg/mL in the series on Escherichia coli [23]; 1 µg/mL in the series with Salmonella typhimurium (Salmonella enterica subsp. enterica serovar Typhimurium); 1 µg/mL against Pseudomonas aeruginosa [24].
Regarding `NNC(=O)c1ccncc1` [ISONIAZID], the inhibition of growth at 1 µg/mL in series [25] stood at 100%. Besides, in [26], the inhibition at 1 µg/mL was > 90%. Further, the inhibition of growth at 0.2 µg/mL in [27] was 48.8%. The inhibition of growth at 0.012 µg/mL in series [28] was determined as 7.22%. The inhibition of growth at 0.006 µg/mL in [29] was determined as 1.47%.
In the case of `C#CCOc1cn([C@@H]2O[C@H](CO)[C@@H](O)[C@H]2F)c(=O)n(CC#C)c1=O`, the values for the inhibition of growth at 200 µg/mL (in series [3]; in the series on Mycobacterium avium [4]) were 35% and 0%, respectively. In series [13], the CC50 at 72 h was > 300 µg/mL. Besides, the MIC in the series on Staphylococcus aureus [1] was 200 µg/mL (≈ 591 µM); with Enterococcus faecalis [2], 200 µg/mL (≈ 591 µM); with Escherichia coli [23] (read-out: MIC100) it was > 200 µg/mL; in the series with Salmonella typhimurium, > 200 µg/mL; in the series with Pseudomonas aeruginosa [24] (read-out: MIC100), > 200 µg/mL. For the same compound, the “growth inhibition (GI)” value in the series on Staphylococcus aureus [30] and with Enterococcus faecalis [32] was 100% throughout. Moreover, the “fractional inhibitory concentration index (FICI)” value with Staphylococcus aureus [31] came out at 0.7; in the series with Enterococcus faecalis [33], 0.86.

These data come from ChEMBL document CHEMBL3861999, “Investigation of C-5 alkynyl (alkynyloxy or hydroxymethyl) and/or N-3 propynyl substituted pyrimidine nucleoside analogs as a new class of antimicrobial agents” (Bioorg Med Chem, 2016).
